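Dose response: 5 concentrations. Exposure: 48 h. Format: 96-well plates. Endpoint: linear interpolation; highest concentration if not reached. At the TGI there is no net growth.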
Assays:
Experiment in all cases: growth of human tumour cells (NCI), 48 h
IGROV1 ovarian = test system: IGROV1 ovarian
CAKI-1 renal = test system: CAKI-1 renal
SR leukemia = test system: SR leukemia
UACC-62 melanoma = test system: UACC-62 melanoma
HOP-62 NSCLC = test system: HOP-62 NSCLC
OVCAR-8 ovarian = test system: OVCAR-8 ovarian
A549 NSCLC = test system: A549 NSCLC
HT29 colon = test system: HT29 colon
RPMI-8226 leukemia = test system: RPMI-8226 leukemia
SW-620 colon = test system: SW-620 colon
UACC-257 melanoma = test system: UACC-257 melanoma
M14 melanoma = test system: M14 melanoma
SF-295 CNS = test system: SF-295 CNS
ACHN renal = test system: ACHN renal
EKVX NSCLC = test system: EKVX NSCLC
T-47D breast = test system: T-47D breast
SNB-19 CNS = test system: SNB-19 CNS
HS 578T breast = test system: HS 578T breast
OVCAR-4 ovarian = test system: OVCAR-4 ovarian
MCF7 breast = test system: MCF7 breast
SF-268 CNS = test system: SF-268 CNS
HOP-92 NSCLC = test system: HOP-92 NSCLC
BT-549 breast = test system: BT-549 breast
OVCAR-5 ovarian = test system: OVCAR-5 ovarian
HCT-15 colon = test system: HCT-15 colon
SK-MEL-2 melanoma = test system: SK-MEL-2 melanoma
HCT-116 colon = test system: HCT-116 colon
SK-MEL-5 melanoma = test system: SK-MEL-5 melanoma
CCRF-CEM leukemia = test system: CCRF-CEM leukemia
MOLT-4 leukemia = test system: MOLT-4 leukemia
OVCAR-3 ovarian = test system: OVCAR-3 ovarian
NCI-H460 lung = test system: NCI-H460 lung
TK-10 renal = test system: TK-10 renal
COLO 205 colon = test system: COLO 205 colon
MDA-MB-231 breast = test system: MDA-MB-231 breast
MDA-N = test system: MDA-N
HCC-2998 colon = test system: HCC-2998 colon
U251 CNS = test system: U251 CNS
A498 renal = test system: A498 renal
SK-OV-3 ovarian = test system: SK-OV-3 ovarian
MDA-MB-435 = test system: MDA-MB-435
SNB-75 CNS = test system: SNB-75 CNS
786-0 renal = test system: 786-0 renal
NCI/ADR-RES ovarian = test system: NCI/ADR-RES ovarian
PC-3 prostate = test system: PC-3 prostate
SN12C renal = test system: SN12C renal
HL-60(TB) leukemia = test system: HL-60(TB) leukemia
KM12 colon = test system: KM12 colon
NCI-H522 lung = test system: NCI-H522 lung
K-562 leukemia = test system: K-562 leukemia
RXF 393 renal = test system: RXF 393 renal
DU-145 prostate = test system: DU-145 prostate
UO-31 renal = test system: UO-31 renal
LOX IMVI melanoma = test system: LOX IMVI melanoma
NCI-H23 lung = test system: NCI-H23 lung
SF-539 CNS = test system: SF-539 CNS
MALME-3M melanoma = test system: MALME-3M melanoma
SK-MEL-28 melanoma = test system: SK-MEL-28 melanoma
NCI-H226 lung = test system: NCI-H226 lung

COC(=O)NCCc1[nH]nc2c1C(=O)C=C(Nc1ccccc1)C2=O
TGI (IGROV1 ovarian): 65.2 µM | TGI (CAKI-1 renal): > 100 µM | TGI (SR leukemia): 65.2 µM | TGI (UACC-62 melanoma): 34.8 µM | TGI (HOP-62 NSCLC): > 100 µM | TGI (OVCAR-8 ovarian): 40.2 µM | TGI (A549 NSCLC): > 100 µM | TGI (HT29 colon): > 100 µM | TGI (RPMI-8226 leukemia): > 100 µM | TGI (SW-620 colon): > 100 µM | TGI (UACC-257 melanoma): 32.3 µM | TGI (M14 melanoma): > 100 µM | TGI (SF-295 CNS): > 100 µM | TGI (ACHN renal): > 100 µM | TGI (EKVX NSCLC): > 100 µM | TGI (T-47D breast): > 100 µM | TGI (SNB-19 CNS): > 100 µM | TGI (HS 578T breast): > 100 µM | TGI (OVCAR-4 ovarian): 72 µM | TGI (MCF7 breast): 31.2 µM | TGI (SF-268 CNS): > 100 µM | TGI (HOP-92 NSCLC): 95.5 µM | TGI (BT-549 breast): > 100 µM | TGI (OVCAR-5 ovarian): > 100 µM | TGI (HCT-15 colon): > 100 µM | TGI (SK-MEL-2 melanoma): 99.4 µM | TGI (HCT-116 colon): 54.9 µM | TGI (SK-MEL-5 melanoma): 32.2 µM | TGI (CCRF-CEM leukemia): 51.1 µM | TGI (MOLT-4 leukemia): 54.4 µM | TGI (OVCAR-3 ovarian): > 100 µM | TGI (NCI-H460 lung): > 100 µM | TGI (TK-10 renal): > 100 µM | TGI (COLO 205 colon): 37.5 µM | TGI (MDA-MB-231 breast): 87.7 µM | TGI (MDA-N): 33.2 µM | TGI (HCC-2998 colon): > 100 µM | TGI (U251 CNS): 42.2 µM | TGI (A498 renal): > 100 µM | TGI (SK-OV-3 ovarian): > 100 µM | TGI (MDA-MB-435): 31.1 µM | TGI (SNB-75 CNS): > 100 µM | TGI (786-0 renal): > 100 µM | TGI (NCI/ADR-RES ovarian): 70.3 µM | TGI (PC-3 prostate): > 100 µM | TGI (SN12C renal): > 100 µM | TGI (HL-60(TB) leukemia): 46.3 µM | TGI (KM12 colon): 62.2 µM | TGI (NCI-H522 lung): 28.6 µM | TGI (K-562 leukemia): > 100 µM | TGI (RXF 393 renal): > 100 µM | TGI (DU-145 prostate): > 100 µM | TGI (UO-31 renal): > 100 µM | TGI (LOX IMVI melanoma): 75.8 µM | TGI (NCI-H23 lung): 31.4 µM | TGI (SF-539 CNS): 52.4 µM | TGI (MALME-3M melanoma): 25.5 µM

O=C1c2cc3ccccc3cc2C2(c3ccc(Cl)cc3)N[C@H]3CCCC[C@@H]3N12 (stereo partly specified)
TGI (IGROV1 ovarian): 30.6 µM | TGI (CAKI-1 renal): 70.3 µM | TGI (SR leukemia): 48.7 µM | TGI (UACC-62 melanoma): 35.2 µM | TGI (HOP-62 NSCLC): 20.3 µM | TGI (OVCAR-8 ovarian): 19.4 µM | TGI (A549 NSCLC): 36.3 µM | TGI (HT29 colon): 53.5 µM | TGI (RPMI-8226 leukemia): > 100 µM | TGI (SW-620 colon): 59.3 µM | TGI (UACC-257 melanoma): 48 µM | TGI (M14 melanoma): 8.65 µM | TGI (SF-295 CNS): 32.4 µM | TGI (ACHN renal): 38.7 µM | TGI (EKVX NSCLC): 26.8 µM | TGI (T-47D breast): 52.7 µM | TGI (SNB-19 CNS): 27.9 µM | TGI (HS 578T breast): 27.9 µM | TGI (OVCAR-4 ovarian): 21.3 µM | TGI (MCF7 breast): 84.9 µM | TGI (SF-268 CNS): 39 µM | TGI (HOP-92 NSCLC): 98.5 µM | TGI (BT-549 breast): 36.9 µM | TGI (OVCAR-5 ovarian): 60.2 µM | TGI (HCT-15 colon): > 100 µM | TGI (SK-MEL-2 melanoma): 35.4 µM | TGI (HCT-116 colon): 18.8 µM | TGI (SK-MEL-5 melanoma): 42.8 µM | TGI (CCRF-CEM leukemia): > 100 µM | TGI (MOLT-4 leukemia): > 100 µM | TGI (OVCAR-3 ovarian): 49 µM | TGI (NCI-H460 lung): 47.3 µM | TGI (TK-10 renal): 27.3 µM | TGI (COLO 205 colon): > 100 µM | TGI (MDA-MB-231 breast): 36.2 µM | TGI (MDA-N): 57.8 µM | TGI (U251 CNS): 30.1 µM | TGI (A498 renal): 39.7 µM | TGI (SK-OV-3 ovarian): 31.9 µM | TGI (MDA-MB-435): 93 µM | TGI (SNB-75 CNS): 37.5 µM | TGI (SK-MEL-28 melanoma): 28.1 µM | TGI (786-0 renal): 23.3 µM | TGI (NCI/ADR-RES ovarian): 41.6 µM | TGI (PC-3 prostate): 42.6 µM | TGI (SN12C renal): 43.8 µM | TGI (HL-60(TB) leukemia): 55.6 µM | TGI (KM12 colon): 48.2 µM | TGI (K-562 leukemia): > 100 µM | TGI (RXF 393 renal): 24.2 µM | TGI (DU-145 prostate): 60.2 µM | TGI (UO-31 renal): 57.6 µM | TGI (LOX IMVI melanoma): 55.8 µM | TGI (NCI-H23 lung): 31.3 µM | TGI (SF-539 CNS): 21.8 µM | TGI (MALME-3M melanoma): 36.8 µM

CC1(c2ccc(Cl)cc2)CC(c2ccc(Cl)cc2)=C(C#N)C(=C(C#N)C#N)N1 (stereo unspecified)
TGI (IGROV1 ovarian): 28.8 µM | TGI (CAKI-1 renal): 32.5 µM | TGI (SR leukemia): > 100 µM | TGI (UACC-62 melanoma): 33.5 µM | TGI (HOP-62 NSCLC): 25.1 µM | TGI (OVCAR-8 ovarian): 34 µM | TGI (A549 NSCLC): 53.3 µM | TGI (HT29 colon): > 100 µM | TGI (RPMI-8226 leukemia): > 100 µM | TGI (SW-620 colon): > 100 µM | TGI (UACC-257 melanoma): 37.1 µM | TGI (M14 melanoma): 36.6 µM | TGI (SF-295 CNS): 32.6 µM | TGI (ACHN renal): 28 µM | TGI (EKVX NSCLC): 35.6 µM | TGI (T-47D breast): 40 µM | TGI (SNB-19 CNS): 39.6 µM | TGI (HS 578T breast): 50.3 µM | TGI (OVCAR-4 ovarian): 35.7 µM | TGI (MCF7 breast): 49.8 µM | TGI (SF-268 CNS): 22.6 µM | TGI (HOP-92 NSCLC): 11 µM | TGI (BT-549 breast): 42.2 µM | TGI (OVCAR-5 ovarian): 61.9 µM | TGI (HCT-15 colon): 32.5 µM | TGI (SK-MEL-2 melanoma): 63.4 µM | TGI (HCT-116 colon): 31.7 µM | TGI (NCI-H226 lung): 75.8 µM | TGI (SK-MEL-5 melanoma): 27.2 µM | TGI (CCRF-CEM leukemia): > 100 µM | TGI (MOLT-4 leukemia): 60.3 µM | TGI (OVCAR-3 ovarian): 24.3 µM | TGI (NCI-H460 lung): 73.3 µM | TGI (TK-10 renal): 32.6 µM | TGI (COLO 205 colon): 28.7 µM | TGI (MDA-MB-231 breast): 55.8 µM | TGI (MDA-N): 38.5 µM | TGI (HCC-2998 colon): 29.5 µM | TGI (U251 CNS): 29.5 µM | TGI (A498 renal): 40 µM | TGI (SK-OV-3 ovarian): 31.2 µM | TGI (MDA-MB-435): 34.7 µM | TGI (SNB-75 CNS): 34.7 µM | TGI (SK-MEL-28 melanoma): > 100 µM | TGI (786-0 renal): 24.7 µM | TGI (NCI/ADR-RES ovarian): 46.5 µM | TGI (PC-3 prostate): 31.9 µM | TGI (SN12C renal): 37.2 µM | TGI (HL-60(TB) leukemia): 78.6 µM | TGI (KM12 colon): 40.3 µM | TGI (K-562 leukemia): 66.2 µM | TGI (RXF 393 renal): 32.1 µM | TGI (DU-145 prostate): 28.2 µM | TGI (UO-31 renal): 30.7 µM | TGI (LOX IMVI melanoma): 33.6 µM | TGI (NCI-H23 lung): 34.7 µM | TGI (SF-539 CNS): 40.7 µM | TGI (MALME-3M melanoma): 32.3 µM

Reference: PubChem BioAssay (NCI)
